Laboratory results: patent US20080103169A1, “COMPOSITIONS COMPRISING ACID LABILE PROTON PUMP INHIBITING AGENTS, AT LEAST ONE OTHER […] ACTIVE AGENT AND METHODS OF USING SAME” (priority 2006, published 2008)
Like-named read-outs stand apart in the source and are kept apart here. Values belong to the compound of their own block, whether it stands above or below them.

Tests used:
[1] = PPI half-life (serum concentration profile), n of 1 studies; type: in vivo, human; conditions: for half-life: human, serum, Day 1, n of 1
Excerpt: The measure of a PPIs activity can be predicted by looking at AUC above 1 micromole. The elimination rate (Kel) is the only variable that can be changed to increase the AUC for a given PPI. Half-life=0.693/Kel
These are all n of 1 studies all performed on the same subject. (Unless otherwise stated, 1.68 g NaHCO3 was used as buffering agent)

H+, K+-ATPase = biological target: T1, H+, K+-ATPase (Rattus norvegicus, UniProt P09626); conditions: cited from earlier work
T1 construct: host or cells: rats (in vivo treatment; endogenous gastric enzyme)
T1 sequence (P09626 whole entry): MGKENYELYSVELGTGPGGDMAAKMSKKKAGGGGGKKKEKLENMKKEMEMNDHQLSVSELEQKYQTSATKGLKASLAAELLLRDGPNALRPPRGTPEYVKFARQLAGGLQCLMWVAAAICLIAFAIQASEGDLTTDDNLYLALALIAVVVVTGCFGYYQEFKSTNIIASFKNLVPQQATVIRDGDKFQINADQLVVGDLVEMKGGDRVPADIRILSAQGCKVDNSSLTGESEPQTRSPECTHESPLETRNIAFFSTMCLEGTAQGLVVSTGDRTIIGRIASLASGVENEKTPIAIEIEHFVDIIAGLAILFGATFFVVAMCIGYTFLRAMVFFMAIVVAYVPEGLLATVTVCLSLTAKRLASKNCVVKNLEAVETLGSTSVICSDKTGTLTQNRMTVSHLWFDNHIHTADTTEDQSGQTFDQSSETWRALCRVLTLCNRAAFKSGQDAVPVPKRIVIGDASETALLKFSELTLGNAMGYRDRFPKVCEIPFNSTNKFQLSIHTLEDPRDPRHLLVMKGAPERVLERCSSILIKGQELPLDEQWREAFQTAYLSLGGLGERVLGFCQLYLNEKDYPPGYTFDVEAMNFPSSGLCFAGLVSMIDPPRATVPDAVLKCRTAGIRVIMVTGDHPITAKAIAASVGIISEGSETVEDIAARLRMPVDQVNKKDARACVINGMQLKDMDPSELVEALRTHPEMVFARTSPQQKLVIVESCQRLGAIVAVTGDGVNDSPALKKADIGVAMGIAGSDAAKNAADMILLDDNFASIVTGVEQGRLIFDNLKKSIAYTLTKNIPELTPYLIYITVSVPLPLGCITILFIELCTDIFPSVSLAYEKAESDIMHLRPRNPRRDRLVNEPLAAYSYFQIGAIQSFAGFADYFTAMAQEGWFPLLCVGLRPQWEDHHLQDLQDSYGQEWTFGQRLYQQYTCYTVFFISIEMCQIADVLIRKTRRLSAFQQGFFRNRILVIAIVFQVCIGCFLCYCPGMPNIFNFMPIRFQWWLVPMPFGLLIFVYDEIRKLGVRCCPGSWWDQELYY
T1 sequence (P18598 whole entry partner): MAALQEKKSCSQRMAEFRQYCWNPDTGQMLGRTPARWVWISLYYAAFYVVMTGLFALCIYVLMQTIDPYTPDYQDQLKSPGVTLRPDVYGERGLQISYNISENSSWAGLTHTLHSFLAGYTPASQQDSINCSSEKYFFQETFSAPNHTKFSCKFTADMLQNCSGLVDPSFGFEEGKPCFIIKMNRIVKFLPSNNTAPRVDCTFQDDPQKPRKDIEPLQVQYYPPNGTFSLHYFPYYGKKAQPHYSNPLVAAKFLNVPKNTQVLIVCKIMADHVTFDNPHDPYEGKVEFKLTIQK

[2] = oral, 120 mg, IR 120 mg given alone
[3] = oral, given as OME-IR 120 mg+Tenatoprazole IR 40 mg+Cimetidine 200 mg
[4] = oral, given as OME-IR 120 mg+Tenatoprazole IR 40 mg

- half-life of omeprazole ([1]; administered with cimetidine (FIG. 11)): three
- half-life [1, 2]: 1.8 h
- half-life ([1]; oral, given as OME-IR 120 mg+Cimetidine 200 mg): 2.1 h
- half-life [1, 3]: 1.8 h
- half-life [1, 4]: 1.8 h
Compound: COc1ccc2[nH]c([S+]([O-])Cc3ncc(C)c(OC)c3C)nc2c1 (stereo not shown) [omeprazole, 5-methoxy-2-[[(4-methoxy-3,5-dimethyl-2-pyridinyl)methyl]sulfinyl]-1H benzimidazole]
- effect of omeprazole on H+, K+-ATPase activity (H+, K+-ATPase; rats pretreated with cimetidine, compared to control (no pretreatment)): much reduced effect
- effect of omeprazole on H+, K+-ATPase activity (H+, K+-ATPase; rats pretreated with secretogue carbachol): increased the effect of omeprazole

- half-life ([1]; 40 mg, 40 mg given alone): 1.4 h
Compound: COc1ccc2nc([S@@+]([O-])Cc3ncc(C)c(OC)c3C)[nH]c2c1 [esomeprazole]

- half-life ([1]; oral, 40 mg, 40 mg given alone): 7 h
- half-life [1, 2]: 8.7 h
- half-life [1, 3]: 12.9 h
- half-life [1, 4]: 12.9 h
Compound: COc1ccc2[nH]c([S+]([O-])Cc3ncc(C)c(OC)c3C)nc2n1 (stereo not shown) [tenatoprazole, 5-methoxy-2-[[(4-methoxy-3,5-dimethyl-2-pyridyl)methyl]sulfinyl]imidazo[4,5-b]pyridine]

- half-life ([1]; oral, given as OME-IR 80 mg+Lansoprazole IR 80 mg): 3.1 h
Compound: Cc1c(OCC(F)(F)F)ccnc1C[S+]([O-])c1nc2ccccc2[nH]1 (stereo not shown) [lansoprazole]
